Our source for the IC50 values is publication PMC9218960 (ACS infectious diseases, 2020).

Molecules are shown by their SMILES. Numbering of substitutions follows the chain as printed.

What all share (assay): [3H]uridine uptake inhibition by purines in PfENT1-SNP-expressing yeast
Type in all cases: cell-based

One assay concerns the target T1, PfENT1 A351S (Plasmodium falciparum, UniProt Q8IDM6, A351S).
T1 sequence (Q8IDM6 1-422 A351S): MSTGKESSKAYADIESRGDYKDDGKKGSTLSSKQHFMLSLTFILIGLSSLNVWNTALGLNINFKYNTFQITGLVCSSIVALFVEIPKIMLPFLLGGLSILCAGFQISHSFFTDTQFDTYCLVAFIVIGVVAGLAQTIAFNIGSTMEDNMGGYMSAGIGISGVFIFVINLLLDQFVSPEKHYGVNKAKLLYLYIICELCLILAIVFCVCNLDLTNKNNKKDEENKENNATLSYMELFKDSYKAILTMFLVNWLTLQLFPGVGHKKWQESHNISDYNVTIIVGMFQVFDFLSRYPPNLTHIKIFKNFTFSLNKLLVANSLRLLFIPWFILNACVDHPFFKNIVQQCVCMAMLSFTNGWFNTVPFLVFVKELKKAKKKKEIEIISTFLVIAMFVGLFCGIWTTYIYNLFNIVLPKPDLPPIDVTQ

A further assay has as its target T2, PfENT1 F36S/V129I (Plasmodium falciparum, UniProt Q8IDM6, F36S/V129I).
T2 sequence (Q8IDM6 1-422 F36S/V129I): T1 sequence (Q8IDM6 1-422 A351S) with F36S, V129I, S351A

Another assay has as its target T3, PfENT1 L385I (Plasmodium falciparum, UniProt Q8IDM6, L385I).
T3 sequence (Q8IDM6 1-422 L385I): T1 sequence (Q8IDM6 1-422 A351S) with S351A, L385I

For the next assay, the target named is T4, PfENT1 Q284E (Plasmodium falciparum, UniProt Q8IDM6, Q284E).
T4 sequence (Q8IDM6 1-422 Q284E): T1 sequence (Q8IDM6 1-422 A351S) with Q284E, S351A

The next assay concerns the target T5, PfENT1 V345I (Plasmodium falciparum, UniProt Q8IDM6, V345I).
T5 sequence (Q8IDM6 1-422 V345I): T1 sequence (Q8IDM6 1-422 A351S) with V345I, S351A

Assay [1] has as its target T6, PfENT1 F36S/V129I/L133F/P417L (Quad) (Plasmodium falciparum, UniProt Q8IDM6, F36S/L133F/P417L/V129I).
T6 sequence (Q8IDM6 1-422 F36S/V129I/L133F/P417L): T1 sequence (Q8IDM6 1-422 A351S) with F36S, V129I, L133F, S351A, P417L

For `OC[C@H]1O[C@@H](n2cnc3c(O)ncnc32)[C@H](O)[C@@H]1O` [Inosine, inosine], the IC50 (in general, the midpoint of a concentration-inhibition curve) at PfENT1 A351S was determined as 26 ± 9 µM; against PfENT1 F36S/V129I, 14 ± 2 µM; against PfENT1 L385I, 58 ± 17 µM; at PfENT1 Q284E it was 18 ± 6 µM; against PfENT1 V345I, 4 ± 0.2 µM; in assay [1], 12 ± 1 µM.
For the compound `Nc1ncnc2nc[nH]c12` [Adenine, adenine], the IC50 on PfENT1 A351S is 1240 ± 142 µM; on PfENT1 F36S/V129I, 333 ± 32 µM; against PfENT1 L385I, 185 ± 15 µM; against PfENT1 Q284E, 1070 ± 128 µM; against PfENT1 V345I, 225 ± 17 µM; in assay [1], 362 ± 56 µM.
As to `O=c1[nH]cnc2nc[nH]c12` [Hypoxanthine, hypoxanthine], the IC50 is 576 ± 270 µM at PfENT1 A351S; 107 ± 5 µM against PfENT1 F36S/V129I; 173 ± 46 µM at PfENT1 L385I; 566 ± 133 µM at PfENT1 Q284E; 161 ± 57 µM at PfENT1 V345I; 108 ± 5 µM in assay [1].
